Assay results as given in US20240252677A1, “ONE-COMPONENT DELIVERY SYSTEM FOR NUCLEIC ACIDS” (The Trustees of the University of Pennsylvania, priority 2021, published 2024).

How the values were obtained:
[1] = Dimensions (size, PDI) of DNPs co-assembled from IAJDs and Luc-mRNA by DLS; type: physicochemical
Method in brief: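 IAJDs (80 mg/mL ethanol stock) rapidly injected into Luc-mRNA (4.0 mg/mL stock) diluted in 10 mM acetate buffer pH 4.0, then vortexed 5 s. Size and polydispersity of resulting DNPs measured by DLS (633 nm laser, 175° detection) at 23 °C.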

[2] = system: liver; test: In vivo mRNA delivery, IVIS imaging of organs: liver; set-up: species or system mice; key to Organs with luminescence: liver: strong: Strong meant the luminescence intensity in that organ was relatively high, compared to other organs; weak: Weak meant the luminescence intensity in that organ was relatively low, compared to other organs; details: Table 17; mice, IVIS, 4-6 h after injection; intensity relative to other organs
[3] = system: spleen; test: In vivo mRNA delivery, IVIS imaging of organs: spleen; set-up: species or system mice; key to Organs with luminescence: spleen: strong: Strong meant the luminescence intensity in that organ was relatively high, compared to other organs; weak: Weak meant the luminescence intensity in that organ was relatively low, compared to other organs; details: Table 17; mice, IVIS, 4-6 h after injection; intensity relative to other organs
[4] = pKa measurements of individual IAJD molecules by titration; type: physicochemical; details: ethanol saturated with NaCl, titrated with 0.1 M aqueous HCl; individual IAJD molecules, titration
Method in brief: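 Compound dissolved at 1.5 mg/mL in NaCl-saturated ethanol and titrated with 0.1 M HCl in 7.5 μL steps, pH read by electrode after each addition. pKa taken from the half-equivalence point.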

[5] = Stability of DNPs by DLS after storage at 5° C.; type: physicochemical; set-up: key to Original size distribution type (DLS curve) / Size distribution type (DLS curve): U: DLS curve showed unimodal size distribution; B: DLS curve showed bimodal size distribution; M: DLS curve showed multimodal size distribution; details: for pH Sample: DNPs: IAJD 4.0 mg/mL + Luc-mRNA 0.1 mg/mL, injection in acetate buffer pH 4.00; for PDI / Size (d, nm) / Original size distribution type (DLS curve): IAJD 4.0 mg/mL + Luc-mRNA 0.1 mg/mL; for PDI / Size (d, nm): acetate buffer; for Original size distribution type (DLS curve): before storage, acetate buffer pH 4.00
Method in brief: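 DNPs in acetate buffer sized by DLS after storage at 5 °C. Stability ranked Excellent, Good or Not stable according to retention, shrinkage or growth of original size and narrowing or broadening of size distribution.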

[6] = Table 16, DNPs from IAJD 4 mg/mL and Luc-mRNA 0.10 mg/mL by injection in acetate buffer (10 mM, pH 4.0)
[7] = Table 17, DNPs used in vivo, IAJD 4 mg/mL, Luc-mRNA 0.10 mg/mL, acetate pH 4.0

Row | SMILES | PDI [1, 6] | Size (d, nm) [1, 6] [nm] | PDI [1, 7] | Size (d, nm) [1, 7] [nm] | Organs with luminescence: liver [2] | Organs with luminescence: spleen [3] | pKa [4] | pH Sample [5] | Original size distribution type (DLS curve) [5] | Size distribution type (DLS curve) ([5]; after 19 days at 5° C.) | PDI ([5]; after 19 days at 5° C.) | Size (d, nm) ([5]; after 19 days at 5° C.) [nm] | Size distribution type (DLS curve) ([5]; after 35 days at 5° C.) | PDI ([5]; after 35 days at 5° C.) | Size (d, nm) ([5]; after 35 days at 5° C.) [nm] | also measured
1 | CCCCCCCCCCCCCCCOc1cc(COC(=O)CCCN2CCN(CCO)CC2)cc(OCCCCCCCCCCCCC)c1 [IAJD 146, 3-(Pentadecyloxy)-5-(tridecyloxy)benzyl 4-(4-(2-hydroxyethyl)piperazin-1-yl)butanoate] | 0.276 | 231 | 0.276 | 231 | liver (strong), | spleen (strong) | 6.59 | 4.40 | (U) | – | – | – | – | – | – | Size distribution type (DLS curve) ([5]; after 27 days at 5° C.): (U); PDI ([5]; after 27 days at 5° C.): 0.285; Size (d, nm) ([5]; after 27 days at 5° C.): 227 nm
2 | CCCCCCCCCCCCCCCOc1cc(COC(=O)CCCN2CCN(C)CC2)cc(OCCCCCCCCCCCCCC)c1 [IAJD 147, 3-(Pentadecyloxy)-5-(tetradecyloxy)benzyl 4-(4-methylpiperazin-1-yl)butanoate] | 0.287 | 144 | 0.287 | 144 | liver (weak), | spleen (strong) | 6.32 | 4.50 | (U) | (U) | 0.283 | 145 | – | – | – | –
3 | CCCCCCCCCCCCCCCOc1cc(COC(=O)CCCN2CCN(CCO)CC2)cc(OCCCCCCCCCCCCCC)c1 [IAJD 148, 3-(Pentadecyloxy)-5-(tetradecyloxy)benzyl 4-(4-(2-hydroxyethyl)piperazin-1-yl)butanoate] | 0.339 | 363 | 0.339 | 363 | liver (weak), | spleen (strong) | 6.65 | 4.46 | (U) | (B) | 0.374 | 405 | – | – | – | –
4 | CCCCCCCCCCCCCCCCOc1cc(COC(=O)CCCN2CCN(C)CC2)cc(OCCCCCCCCCCCCCCC)c1 [IAJD 149, 3-(Hexadecyloxy)-5-(pentadecyloxy)benzyl 4-(4-methylpiperazin-1-yl)butanoate] | 0.304 | 193 | 0.304 | 193 | liver (weak), | spleen (strong) | 6.5 | 4.50 | (B) | (B) | 0.291 | 193 | – | – | – | –
5 | CCCCCCCCCCCCCCCCOc1cc(COC(=O)CCCN2CCN(CCO)CC2)cc(OCCCCCCCCCCCCCCC)c1 [IAJD 150, 3-(Hexadecyloxy)-5-(pentadecyloxy)benzyl 4-(4-(2-hydroxyethyl)piperazin-1-yl)butanoate] | 0.454 | 285 | 0.454 | 285 | liver (weak), | spleen (strong) | 6.65 | 4.51 | (B) | (U) | 0.314 | 308 | – | – | – | –
6 | CCCCCCCCCCCCCCCCCOc1cc(COC(=O)CCCN2CCN(C)CC2)cc(OCCCCCCCCCCCCCCC)c1 [IAJD 151, 3-(Heptadecyloxy)-5-(pentadecyloxy)benzyl 4-(4-methylpiperazin-1-yl)butanoate] | 0.216 | 287 | 0.216 | 287 | liver (weak), | spleen (strong) | 6.39 | 4.57 | (U) | – | – | – | (U) | 0.240 | 271 | –
7 | CCCCCCCCCCCCCCCCCOc1cc(COC(=O)CCCN2CCN(CCO)CC2)cc(OCCCCCCCCCCCCCCC)c1 [IAJD 152, 3-(Heptadecyloxy)-5-(pentadecyloxy)benzyl 4-(4-(2-hydroxyethyl)piperazin-1-yl)butanoate] | 0.370 | 281 | 0.370 | 281 | Liver (weak), | spleen (strong) | 6.65 | 4.45 | (B) | – | – | – | (U) | 0.286 | 253 | –
8 | CCCCCCCCCCCCCCCCCCOc1cc(COC(=O)CCCN2CCN(C)CC2)cc(OCCCCCCCCCCCCCCC)c1 [IAJD 153, 3-(Octadecyloxy)-5-(pentadecyloxy)benzyl 4-(4-methylpiperazin-1-yl)butanoate] | 0.238 | 232 | 0.238 | 232 | liver (strong), | spleen (strong) | 6.42 | 4.52 | (U) | – | – | – | (U) | 0.232 | 222 | –
9 | CCCCCCCCCCCCCCCCCCOc1cc(COC(=O)CCCN2CCN(CCO)CC2)cc(OCCCCCCCCCCCCCCC)c1 [IAJD 154, 3-(Octadecyloxy)-5-(pentadecyloxy)benzyl 4-(4-(2-hydroxyethyl)piperazin-1-yl)butanoate] | 0.407 | 429 | 0.407 | 429 | liver (weak), | spleen (strong) | 6.48 | 4.47 | (B) | – | – | – | (B) | 0.471 | 372 | –
10 | CCCCCCCCCCCCCOc1cc(COC(=O)CCCN2CCN(C)CC2)cc(OCC(CC)CCCC)c1 (stereo not drawn) [IAJD 161, 3-((2-Ethylhexyl)oxy)-5-(tridecyloxy)benzyl 4-(4-methylpiperazin-1-yl)butanoate] | 0.235 | 129 | 0.235 | 129 | liver (strong), | spleen (strong) | 6.38 | 4.97 | (U) | – | – | – | – | – | – | Size distribution type (DLS curve) ([5]; after 21 days at 5° C.): (U); PDI ([5]; after 21 days at 5° C.): 0.226; Size (d, nm) ([5]; after 21 days at 5° C.): 125 nm
